The assay concerns the target T1, ALDH1A3 (Homo sapiens, UniProt P47895).
T1 sequence (P47895 1-512): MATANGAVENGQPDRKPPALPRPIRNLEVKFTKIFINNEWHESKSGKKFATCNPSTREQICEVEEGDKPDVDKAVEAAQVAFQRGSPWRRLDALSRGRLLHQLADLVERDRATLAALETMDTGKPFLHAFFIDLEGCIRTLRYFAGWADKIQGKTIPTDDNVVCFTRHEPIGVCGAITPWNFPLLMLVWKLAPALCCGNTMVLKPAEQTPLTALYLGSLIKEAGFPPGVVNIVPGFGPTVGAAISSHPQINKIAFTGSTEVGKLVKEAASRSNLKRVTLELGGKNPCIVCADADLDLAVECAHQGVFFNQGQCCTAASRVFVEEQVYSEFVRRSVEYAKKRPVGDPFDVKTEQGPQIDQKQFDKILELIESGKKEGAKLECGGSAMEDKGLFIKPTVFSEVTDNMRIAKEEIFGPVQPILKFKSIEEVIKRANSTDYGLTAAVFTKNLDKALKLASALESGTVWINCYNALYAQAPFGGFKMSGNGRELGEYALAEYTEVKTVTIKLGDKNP
As to the kind of experiment: ALDH1A3 cellular assay (ALDEFLUOR) in WM266.4 melanoma cells. Type of assay: cell-based. The following applies: WM266.4 cells; 60 min incubation; percentage of ALDH-positive cells. The method in brief: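 WM266.4 melanoma cells, 7500 per well, incubated overnight, then 60 min at 37 °C with compound (10 μM to 0.0005 μM, 10 points) plus BAAA substrate (500 nM final), verapamil (50 μM) and Hoechst. Imaged BODIPY fluorescence per cell; EC50 from percentage of ALDH-positive cells.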
As a reminder, the IC50 is the point on the concentration scale where inhibition reaches its midpoint. Low readings indicate greater potency in that assay, high ones weaker potency in that assay. Take `O=C1CSc2cc(OCCN3CCCC3c3cccc(F)c3)ccc2N1` (centres unmarked) [ALDHI-2008, 7-[2-[2-(3-fluorophenyl)pyrrolidin-1-yl]ethoxy]-4H-1,4-benzothiazin-3-one]: the IC50 was below 100 nM.
The compound `Cc1nc(C2CCCN2CCOc2ccc3c(c2)CCC(=O)N3)cs1` (centres unmarked) [ALDHI-2033, 6-[2-[2-(2-methylthiazol-4-yl)pyrrolidin-1-yl]ethoxy]-3,4-dihydro-1H-quinolin-2-one] showed an IC50 of 1000 to 10000 nM.
`O=C1CCc2cc(OCCN3CCCC3c3cccc(F)c3)ccc2N1` (centres unmarked) [ALDHI-2001, 6-[2-[2-(3-fluorophenyl)pyrrolidin-1-yl]ethoxy]-3,4-dihydro-1H-quinolin-2-one]: the IC50 is below 100 nM.
As to `O=C1CCc2cc(OCCN3CCCC3c3cccs3)ccc2N1` (centres unmarked) [ALDHI-2013, 6-[2-[2-(2-thienyl)pyrrolidin-1-yl]ethoxy]-3,4-dihydro-1H-quinolin-2-one], the IC50 is 100 to 1000 nM.
In the case of `O=C1CCc2cc(NC(=O)c3scnc3-c3ccccc3F)ccc2N1` [ALDHI-1021, 4-(2-fluorophenyl)-N-(2-oxo-3,4-dihydro-1H-quinolin-6-yl)thiazole-5-carboxamide], the IC50 is below 100 nM.

For the origin of these results see patent US20240174634A1, “Aldehyde Dehydrogenase Inhibitors and Their Therapeutic Use” (priority 2020, published 2024).
